Here are results for 23 compounds from ChEMBL document CHEMBL3352273, “Synthesis and biological evaluation of novel thieno[2,3-d]pyrimidine-based FLT3 inhibitors as anti-leukemic agents” (Eur J Med Chem, 2014).

pIC50: −log10 of the molar value. Bounds are passed on as bounds.

Data set [1] addresses T1, Receptor-type tyrosine-protein kinase FLT3 (Homo sapiens, UniProt P36888).
T1 sequence (P36888 whole entry): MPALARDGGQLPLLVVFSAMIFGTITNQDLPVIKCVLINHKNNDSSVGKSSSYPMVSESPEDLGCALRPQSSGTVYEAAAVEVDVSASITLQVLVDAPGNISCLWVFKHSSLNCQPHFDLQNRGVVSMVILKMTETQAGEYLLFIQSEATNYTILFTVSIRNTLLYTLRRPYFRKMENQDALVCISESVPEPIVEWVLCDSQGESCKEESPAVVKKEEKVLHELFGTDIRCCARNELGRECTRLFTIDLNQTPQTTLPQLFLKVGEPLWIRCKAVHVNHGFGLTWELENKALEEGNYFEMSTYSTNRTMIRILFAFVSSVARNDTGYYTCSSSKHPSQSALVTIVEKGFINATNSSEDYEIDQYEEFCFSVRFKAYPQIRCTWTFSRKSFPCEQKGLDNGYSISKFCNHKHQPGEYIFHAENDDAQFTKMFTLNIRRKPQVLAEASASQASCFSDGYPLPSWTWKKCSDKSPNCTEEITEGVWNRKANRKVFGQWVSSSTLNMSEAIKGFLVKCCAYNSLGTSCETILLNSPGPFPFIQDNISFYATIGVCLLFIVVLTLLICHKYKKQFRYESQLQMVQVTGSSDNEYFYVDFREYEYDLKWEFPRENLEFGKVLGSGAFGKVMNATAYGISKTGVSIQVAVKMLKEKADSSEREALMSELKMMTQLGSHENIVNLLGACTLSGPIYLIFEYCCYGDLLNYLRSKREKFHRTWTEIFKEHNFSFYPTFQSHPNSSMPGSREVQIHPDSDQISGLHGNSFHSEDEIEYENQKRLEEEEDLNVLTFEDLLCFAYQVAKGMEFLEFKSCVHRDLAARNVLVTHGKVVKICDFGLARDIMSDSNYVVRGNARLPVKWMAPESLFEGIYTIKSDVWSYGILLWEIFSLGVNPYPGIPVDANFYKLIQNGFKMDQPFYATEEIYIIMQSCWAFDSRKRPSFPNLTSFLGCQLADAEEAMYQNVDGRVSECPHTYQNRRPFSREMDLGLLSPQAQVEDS
Particulars: for pIC50: read-out: IC50; call rule not given here.

Data set [2] is described as follows: Retention time of the compound by HPLC method. It counts as physicochemical.
The test system of another data set is K562. The experiment in a line: cells. Particulars: Homo sapiens, K562, 48 h.
A short description of data set [3]: cells. The settings on record: Homo sapiens, MV4-11, 48 h.
Description: Growth inhibition of human MV411 cells after 48 hrs by XTT assay
The nature of data set [4]: cells. Particulars: Homo sapiens, HL-60, 48 h.
Description: Growth inhibition of human HL60 cells after 48 hrs by XTT assay
Data set [5] in a line: cells. The settings on record: Homo sapiens, THP-1, 48 h.
Description: Growth inhibition of human THP1 cells after 48 hrs by XTT assay

Description for K562: Growth inhibition of human K562 cells after 48 hrs by XTT assay

With `CC1=CC(=O)N(Nc2nc(-c3cccs3)nc3scc(-c4cccs4)c23)C1=O`, the pIC50 in data set [1] is 7.16. The compound also yielded a Retention_time in data set [2] of 8.11 min. Moreover, the 50% growth inhibitory concentration (GI50) came to 5550 nM with K562, 320 nM in the data set “cells [3]”, 746 nM in the data set “cells [4]” and 2670 nM in “cells [5]”.
On to `CC1=CC(=O)N(Nc2nc(-c3ccccc3)nc3scc(-c4cccs4)c23)C1=O`, for which the pIC50 in data set [1] is 5.80. The compound also gave a Retention_time in data set [2] of 6.15 min. Besides, the GI50 in the data set with K562 was 6300 nM; in “cells [3]”, 836 nM; in the data set “cells [4]”, 862 nM; in the data set “cells [5]”, 3730 nM.
Regarding `CC1=CC(=O)N(Nc2nc(-c3cccs3)nc3scc(-c4ccccc4)c23)C1=O`, the Retention_time in data set [2] is recorded as 8.39 min. Further, the GI50 amounted to 74 nM in the data set with K562, 233 nM in “cells [3]”, 758 nM in the data set “cells [4]” and 155 nM in “cells [5]”.
Turning to `CC1=CC(=O)N(Nc2nc(-c3ccc(N(C)C)cc3)nc3scc(-c4ccccc4)c23)C1=O`, in data set [1], the IC50 result is recorded as “Not Active”. Moreover, the Retention_time in data set [2] stood at 10.86 min. Also, the 50% growth inhibitory concentration (GI50) was 1740 nM in the data set with K562, 755 nM in “cells [3]”, 2190 nM in “cells [4]” and 1630 nM in “cells [5]”.
Turning to `CC1=CC(=O)N(Nc2nc(-c3ccc(N)cc3)nc3scc(-c4ccccc4)c23)C1=O`, in data set [2], the Retention_time stood at 5.16 min. The concentration for 50% growth inhibition (GI50) with K562 came to 8160 nM; in “cells [3]”, 2100 nM; in “cells [4]” it was 3710 nM; in the data set “cells [5]” it was 4110 nM.
In the same order, the values of `COc1sc2nc(-c3cccs3)nc(NN3C(=O)C=C(C)C3=O)c2c1C` are 5.61 min, 1460 nM, 100 nM, 240 nM and 906 nM.
In the same order, the values of `COC(=O)c1sc2nc(-c3cccs3)nc(NN3C(=O)C=C(C)C3=O)c2c1C` are 6.04 min, 30 nM, 86 nM, 136 nM and 172 nM.
Turning to `COC(=O)Cc1sc2nc(-c3cccs3)nc(NN3C(=O)C=C(C)C3=O)c2c1C`, the GI50 came out at 483 nM with K562, 91 nM in the data set “cells [3]”, 656 nM in the data set “cells [4]” and 2900 nM in “cells [5]”.
`CC1=CC(=O)N(Nc2nc(-c3cccs3)nc3sc(CO)c(C)c23)C1=O` had a Retention_time in data set [2] of 10.19 min. For the same compound, the GI50 in the data set on K562 stood at 3840 nM; in the data set “cells [3]”, 92 nM; in the data set “cells [4]”, 712 nM; in the data set “cells [5]”, 2600 nM.
For `COCc1sc2nc(-c3cccs3)nc(NN3C(=O)C=C(C)C3=O)c2c1C`, in that order: 10.19 min, 1260 nM, 115 nM, 266 nM and 1780 nM.
For `CC1=CC(=O)N(Nc2nc(-c3cccs3)nc3sc(C(N)=O)c(C)c23)C1=O`, in that order: 5.72 min, 2780 nM, 193 nM, 7800 nM and 2690 nM.
For `COc1ccc(-c2sc3nc(-c4cccs4)nc(NN4C(=O)C=C(C)C4=O)c3c2C)cc1`, in that order: 10.06 min, 154 nM, 135 nM, 624 nM and 902 nM.
On to `CC1=CC(=O)N(Nc2nc(-c3cccs3)nc3sc(-c4ccc(O)cc4)c(C)c23)C1=O`, for which the Retention_time in data set [2] stood at 4.93 min. Further, the concentration for 50% growth inhibition (GI50) with K562 stood at 145 nM; in “cells [3]”, 131 nM; in the data set “cells [4]” it was 221 nM; in the data set “cells [5]”, 600 nM.
In the case of `CC1=CC(=O)N(Nc2nc(-c3cccs3)nc3sc(-c4cccc(O)c4)c(C)c23)C1=O`, the GI50 with K562 was determined as 3 nM; in “cells [3]”, 123 nM; in “cells [4]”, 383 nM; in “cells [5]” it was 107 nM.
In turn, `CC1=CC(=O)N(Nc2nc(-c3cccs3)nc3sc(-c4ccc([N+](=O)[O-])cc4)c(C)c23)C1=O` gave a Retention_time in data set [2] of 9.44 min. Also, the GI50 turned out to be 1880 nM in the data set on K562, 112 nM in “cells [3]”, 418 nM in “cells [4]” and 846 nM in “cells [5]”.
As to `CC1=CC(=O)N(Nc2nc(-c3cccs3)nc3sc(Cc4ccc(O)cc4)c(C)c23)C1=O`, the GI50 in the data set with K562 came to 880 nM; in the data set “cells [3]”, 103 nM; in the data set “cells [4]” it was 213 nM; in the data set “cells [5]”, 948 nM.
For `NNc1nc(-c2cccs2)nc2scc(-c3cccs3)c12`, the GI50 with K562, in “cells [3]”, in “cells [4]” and in “cells [5]” was greater than 10000 nM in each case.
Regarding `CC1=CC(=O)N(Nc2nc(-c3ccc(C)s3)nc3scc(-c4cccs4)c23)C1=O`, the Retention_time in data set [2] is listed as 6.17 min. The GI50 is 1920 nM in the data set with K562, 775 nM in “cells [3]”, 403 nM in the data set “cells [4]” and 2800 nM in the data set “cells [5]”.
As for `CC1=CC(=O)N(Nc2nc(Cc3cccs3)nc3scc(-c4cccs4)c23)C1=O`, in data set [1], the IC50 result is reported as “Not Active”. Further, the concentration for 50% growth inhibition (GI50) is greater than 10000 nM in the data set on K562, 2010 nM in the data set “cells [3]”, 725 nM in the data set “cells [4]” and 6260 nM in “cells [5]”.
In the case of `CC1=CC(=O)N(Nc2nc(Cc3ccccc3)nc3scc(-c4cccs4)c23)C1=O`, the IC50 entry in data set [1] was “Not Active”. The compound further registered a Retention_time in data set [2] of 7.09 min. For the same compound, the 50% growth inhibitory concentration (GI50) with K562 turned out to be 3520 nM; in “cells [3]”, 3830 nM; in “cells [4]”, 1520 nM; in the data set “cells [5]”, 6660 nM.
Take `COc1ccc(-c2nc(NN3C(=O)C=C(C)C3=O)c3c(-c4ccccc4)csc3n2)cc1`: the IC50 entry in data set [1] is given as “Not Active”. For the same compound, the Retention_time in data set [2] was 9.76 min. Further, the 50% growth inhibitory concentration (GI50) in the data set on K562 stood at 703 nM; in “cells [3]” it was 407 nM; in “cells [4]”, 1310 nM; in “cells [5]”, 2200 nM.
`Cl.c1csc(-c2nc(N3CCNCC3)c3c(-c4cccs4)csc3n2)c1` had a Retention_time in data set [2] of 4.39 min. For the same compound, the 50% growth inhibitory concentration (GI50) with K562, in the data set “cells [3]”, in the data set “cells [4]” and in “cells [5]” was greater than 10000 nM throughout.
As to `COc1cc2c(N3CCN(C(=O)Nc4ccc(OC(C)C)cc4)CC3)ncnc2cc1OCCCN1CCCCC1` [TANDUTINIB], the GI50 with K562 was greater than 10000 nM; in the data set “cells [3]” it was 8760 nM; in the data set “cells [4]”, greater than 10000 nM; in the data set “cells [5]”, greater than 10000 nM.
